{"source": "patent US20210037824A1", "about": "“HERBICIDAL MIXTURES” (BASF SE, priority 2018, published 2021)", "conditions_in_all_cases": "scale 0 to 100", "key": {"ALOMY": {"tested_on": "ALOMY", "assay": "greenhouse pre-emergence herbicidal activity, ALOMY", "format": "in vivo, Alopercurus myosuroides", "excerpt": "(§1) The seeds of the test plants were sown separately for each species. For the pre-emergence treatment, the active compounds, suspended or emulsified in water, were applied 1 day after sowing by means of finely distributing nozzles. The containers were irrigated gently to promote germination and growth and subsequently covered with transparent plastic hoods until the plants had rooted. This cover caused uniform germination of the test plants unless this was adversely affected by the active compounds. Depending on the species, the plants were kept at 10-25° C. and 20-35° C., respectively. The test period extended over 2 to 4 weeks. During this time, the plants were tended and their response to the individual treatments was evaluated. Evaluation was carried out using a scale from 0 to 100. 100 means no emergence of the plants, or complete destruction of at least the above-ground parts, and 0 means no damage or normal course of growth. A good herbicidal activity is given at values of at least 70, and very good herbicidal activity is given at values of at least 85. […] 22ff., the value E, which is expected if the activity of the individual active compounds is only additive, was calculated. […] If the value found experimentally is higher than the value E calculated according to Colby, a synergistic effect is present."}, "GERDI": {"tested_on": "GERDI", "assay": "greenhouse pre-emergence herbicidal activity, GERDI", "format": "in vivo, Geranium dissecium", "excerpt": "(§2) The seeds of the test plants were sown separately for each species. For the pre-emergence treatment, the active compounds, suspended or emulsified in water, were applied 1 day after sowing by means of finely distributing nozzles. The containers were irrigated gently to promote germination and growth and subsequently covered with transparent plastic hoods until the plants had rooted. This cover caused uniform germination of the test plants unless this was adversely affected by the active compounds. Depending on the species, the plants were kept at 10-25° C. and 20-35° C., respectively. The test period extended over 2 to 4 weeks. During this time, the plants were tended and their response to the individual treatments was evaluated. Evaluation was carried out using a scale from 0 to 100. 100 means no emergence of the plants, or complete destruction of at least the above-ground parts, and 0 means no damage or normal course of growth. A good herbicidal activity is given at values of at least 70, and very good herbicidal activity is given at values of at least 85. Trifludimoxazin was formulated as a 500 g/I suspension concentrate, the compound of formula (I) was formulated as a 50 g/I emulsifiable concentrate and, with addition of the amount of solvent system, introduced into the spray liquor used for applying the active compound. In the examples, the solvent used was water. In the examples below, using the method of S. R. Colby (1967) “Calculating synergistic and antagonistic responses of herbicide combinations”, Weeds 15, p. 22ff., the value E, which is expected if the activity of the individual active compounds is only additive, was calculated. E=X+Y−(X·Y/100) • where • X=percent activity using active compound A at an application rate a; • Y=percent activity using active compound B at an application rate b; • E=expected activity (in %) by A+B at application rates a+b. If the value found experimentally is higher than the value E calculated according to Colby, a synergistic effect is present."}, "AVEFA": {"tested_on": "AVEFA", "assay": "greenhouse pre-emergence herbicidal activity, AVEFA", "format": "in vivo, Avena fatua", "excerpt": "as §1"}, "MATIN": {"tested_on": "MATIN", "assay": "greenhouse pre-emergence herbicidal activity, MATIN", "format": "in vivo, Matricaria inodora", "excerpt": "as §1"}, "LAMPU": {"tested_on": "LAMPU", "assay": "greenhouse pre-emergence herbicidal activity, LAMPU", "format": "in vivo, Lamium purpureum", "excerpt": "as §1"}, "LOLMU": {"tested_on": "LOLMU", "assay": "greenhouse pre-emergence herbicidal activity, LOLMU", "format": "in vivo, Lolium multiflorum", "excerpt": "as §1"}, "IPOHE": {"tested_on": "IPOHE", "assay": "greenhouse post-emergence herbicidal activity, IPOHE", "format": "in vivo, Ipomoea hederacea", "procedure": "(§3) The seeds of the test plants were sown separately for each species. For the post-emergence treatment, the test plants were grown to a plant height of from 3 to 15 cm, depending on the plant habit, and only then treated with the active compounds which had been suspended or emulsified in water. To this end, the test plants were either sown directly, and grown in the same containers, or they were first grown separately as seedlings and transplanted into the test containers one week prior to treatment. Depending on the species, the plants were kept at 10-25° C. and 20-35° C., respectively. The test period extended over 2 to 4 weeks. During this time, the plants were tended and their response to the individual treatments was evaluated. Evaluation was carried out using a scale from 0 to 100. 100 means no emergence of the plants, or complete destruction of at least the above-ground parts, and 0 means no damage or normal course of growth. A good herbicidal activity is given at values of at least 70, and very good herbicidal activity is given at values of at least 85. […] 22ff., the value E, which is expected if the activity of the individual active compounds is only additive, was calculated. […] If the value found experimentally is higher than the value E calculated according to Colby, a synergistic effect is present."}, "STEME [1]": {"tested_on": "STEME", "assay": "greenhouse post-emergence herbicidal activity, STEME", "format": "in vivo, Stellaria media", "procedure": "as §3"}, "POLCO": {"tested_on": "POLCO", "assay": "greenhouse pre-emergence herbicidal activity, POLCO", "format": "in vivo, Polygonum convolvulus", "excerpt": "as §2"}, "STEME [2]": {"tested_on": "STEME", "assay": "greenhouse pre-emergence herbicidal activity, STEME", "format": "in vivo, Stellaria media", "excerpt": "as §2"}, "GALAP": {"tested_on": "GALAP", "assay": "greenhouse pre-emergence herbicidal activity, GALAP", "format": "in vivo, Galium aparine", "excerpt": "as §1"}, "[3]": {"conditions": "Example 1, trifludimoxazin 9 g/ha a.s. alone"}, "[4]": {"conditions": "Example 3, trifludimoxazin 4.5 g/ha a.s. alone"}, "[5]": {"conditions": "Example 2, trifludimoxazin 4.5 g/ha a.s. alone"}, "[6]": {"conditions": "Example 6, trifludimoxazin 0.5 g/ha a.s. alone"}, "[7]": {"conditions": "Example 7, trifludimoxazin 0.25 g/ha a.s. alone"}, "[8]": {"conditions": "Example 8, trifludimoxazin 0.25 g/ha a.s. alone"}, "[9]": {"conditions": "Example 1, compound (I) 15.625 g/ha a.s. alone"}, "[10]": {"conditions": "Example 3, compound (I) 31.25 g/ha a.s. alone"}, "[11]": {"conditions": "Example 2, compound (I) 62.5 g/ha a.s. alone"}, "[12]": {"conditions": "Example 6, compound (I) 15.63 g/ha a.s. alone"}, "[13]": {"conditions": "Example 7, compound (I) 15.63 g/ha a.s. alone"}, "[14]": {"conditions": "Example 8, compound (I) 7.81 g/ha a.s. alone"}}}
{"smiles": "C#CCN1C(=O)C(F)(F)Oc2cc(F)c(-n3c(=O)n(C)c(=S)n(C)c3=O)cc21", "note": "[trifludimoxazin, 1,5-dimethyl-6-thioxo-3-(2,2,7-trifluoro-3-oxo-4-(prop-2-ynyl)-3,4-dihydro-2H-benzo[b][1,4]oxazin-6-yl)-1,3,5-triazinane-2,4-dione]", "values": [{"measurement": "herbicidal activity against ALOMY found", "setting": "ALOMY; [3]", "result": 60, "unit": "%"}, {"measurement": "herbicidal activity against GERDI found", "setting": "GERDI; [3]", "result": 75, "unit": "%"}, {"measurement": "herbicidal activity against GERDI found", "setting": "GERDI; [4]", "result": 0, "unit": "%"}, {"measurement": "herbicidal activity against GERDI found", "setting": "GERDI; Example 5, trifludimoxazin 4.5 g/ha a.s. alone", "result": 0, "unit": "%"}, {"measurement": "herbicidal activity against AVEFA found", "setting": "AVEFA; [5]", "result": 35, "unit": "%"}, {"measurement": "herbicidal activity against MATIN found", "setting": "MATIN; [5]", "result": 90, "unit": "%"}, {"measurement": "herbicidal activity against LAMPU found", "setting": "LAMPU; [4]", "result": 98, "unit": "%"}, {"measurement": "herbicidal activity against LOLMU found", "setting": "LOLMU; Example 4, trifludimoxazin 9 g/ha a.s. alone", "result": 65, "unit": "%"}, {"measurement": "herbicidal activity against IPOHE found", "setting": "IPOHE; [6]", "result": 97, "unit": "%"}, {"measurement": "herbicidal activity against STEME found", "setting": "STEME [1]; [6]", "result": 90, "unit": "%"}, {"measurement": "herbicidal activity against POLCO found", "setting": "POLCO; [7]", "result": 88, "unit": "%"}, {"measurement": "herbicidal activity against POLCO found", "setting": "POLCO; [8]", "result": 88, "unit": "%"}, {"measurement": "herbicidal activity against POLCO found", "setting": "POLCO; Example 10, trifludimoxazin 0.25 g/ha a.s. alone", "result": 88, "unit": "%"}, {"measurement": "herbicidal activity against STEME found", "setting": "STEME [2]; [7]", "result": 80, "unit": "%"}, {"measurement": "herbicidal activity against STEME found", "setting": "STEME [2]; [8]", "result": 80, "unit": "%"}, {"measurement": "herbicidal activity against GALAP found", "setting": "GALAP; Example 9, trifludimoxazin 2 g/ha a.s. alone", "result": 93, "unit": "%"}]}
{"smiles": "CC1(C)CON(Cc2ccc(Cl)cc2Cl)C1=O", "note": "[(I), 2-(2,4-dichlorophenyl)methyl-4,4-dimethyl-3-isoxazolidone]", "values": [{"measurement": "herbicidal activity against ALOMY found", "setting": "ALOMY; [9]", "result": 0, "unit": "%"}, {"measurement": "herbicidal activity against GERDI found", "setting": "GERDI; [9]", "result": 20, "unit": "%"}, {"measurement": "herbicidal activity against GERDI found", "setting": "GERDI; [10]", "result": 35, "unit": "%"}, {"measurement": "herbicidal activity against GERDI found", "setting": "GERDI; Example 5, compound (I) 15.625 g/ha a.s. alone", "result": 20, "unit": "%"}, {"measurement": "herbicidal activity against AVEFA found", "setting": "AVEFA; [11]", "result": 0, "unit": "%"}, {"measurement": "herbicidal activity against MATIN found", "setting": "MATIN; [11]", "result": 50, "unit": "%"}, {"measurement": "herbicidal activity against LAMPU found", "setting": "LAMPU; [10]", "result": 0, "unit": "%"}, {"measurement": "herbicidal activity against LOLMU found", "setting": "LOLMU; Example 4, compound (I) 125 g/ha a.s. alone", "result": 65, "unit": "%"}, {"measurement": "herbicidal activity against IPOHE found", "setting": "IPOHE; [12]", "result": 53, "unit": "%"}, {"measurement": "herbicidal activity against STEME found", "setting": "STEME [1]; [12]", "result": 83, "unit": "%"}, {"measurement": "herbicidal activity against POLCO found", "setting": "POLCO; [13]", "result": 60, "unit": "%"}, {"measurement": "herbicidal activity against POLCO found", "setting": "POLCO; [14]", "result": 50, "unit": "%"}, {"measurement": "herbicidal activity against POLCO found", "setting": "POLCO; Example 10, compound (I) 62.5 g/ha a.s. alone", "result": 73, "unit": "%"}, {"measurement": "herbicidal activity against STEME found", "setting": "STEME [2]; [13]", "result": 83, "unit": "%"}, {"measurement": "herbicidal activity against STEME found", "setting": "STEME [2]; [14]", "result": 85, "unit": "%"}, {"measurement": "herbicidal activity against GALAP found", "setting": "GALAP; Example 9, compound (I) 15.63 g/ha a.s. alone", "result": 73, "unit": "%"}]}
